Assay results reported in patent US11197914B2, “GLP-1R/GCGR dual target agonist polypeptide for treatment of fatty liver diseases, hyperlipemia and arteriosclerosis” (Shenzhen Turier Biotech Co., Ltd., priority 2016, dated 2021).
*1 amine or outer side, *2 acyl side, *3 side chain or, on linkers, in order; H or OH if unused. Primed or numbered codes have the meaning given here. Where no end group is shown, it is not given here. Side-chain parts run from the residue outwards. [ ]: non-standard residue; d: D form. The star is where a group is joined. C18 diacid = O=C(O)CCCCCCCCCCCCCCCCC(=O)*; C16 diacid = O=C(O)CCCCCCCCCCCCCCC(=O)*; γGlu = O=C(O)[C@H](CCC(=O)[*:2])N[*:1]; Stearoyl = CCCCCCCCCCCCCCCCCC(=O)*; Palmitoyl = CCCCCCCCCCCCCCCC(=O)*; PEG2′ = not defined here; Aib = CC(C)(N)C(=O)O

These substances were tested on Hepatic stellate cell strain LX-2 (assay: In vitro inhibition of hepatic fibrosis: expression of LX-2 cell activation marker α-SMA (Western Blot, α-SMA/β-actin)). Details: LX-2 cells.
Type: cell-based, human
Experimental: Hepatic stellate cell strain LX-2 was selected to study and observe the effect of different doses of test substances on the expression of LX-2 cell activation marker […]. Hepatic stellate cell LX-2 was laid on 35 mm cell culture plate, cultured with DMEM (high glucose)+10% FBS+1% double-antibody culture medium (Thermo Fisher), placed overnight when the cells grew to 70% convergence at 37° C. and under the condition of 5% CO2, and treated with the above compounds 1-37 (dissolved in PBS) for 48 hours the next day morning to extract cell protein, carry out Western Blot, and take β-actin as internal reference and analyze the expression quantities of α-SMA and β-actin by a gray level of Image J 1.50i. PBS with the same volume as that in experimental group was added in negative control. […] The integrating gray level of α-SMA/β-actin in the negative control group was 100% to analyze the in vitro inhibition activity of hepatic fibrosis of tested polypeptide.

“His-(D-Ser)-Gln-Gly-Thr-Phe-Thr-Ser-Asp-Tyr-Ser-Lys-Tyr-Leu-Asp-Lys(PEG2-PEG2-γGlu-CO(CH2)16CH3)-Arg-Arg-Ala-Gln-Asp-Phe-Val-Gln-Trp-Leu-Met-Asn-Thr-Gly-Gly-Pro-Ser-Ser-Gly-Ala-Pro-Pro-Pro-Ser-NH2 (H[dS]QGTFTSDYSKYLDK([PEG2′-PEG2′-γGlu-Stearoyl])RRAQDFVQWLMNTGGPSSGAPPPS-NH2) [Compound 36]” was tested. Which “Inhibition of LX-2 cell activation marker α-SMA (in words, from Table 2)” value did it give?
The value was “obviously reduce”.

Same assay, conditions: LX-2 cells, 1 μM, 48 hours, negative control = 100%

How did the “Relative expression of α-SMA (α-SMA/β-actin, %)” value turn out when “His-(D-Ser)-Gln-Gly-Thr-Phe-Thr-Ser-Asp-Lys(PEG2-PEG2-CO(CH2)16CH3)-Ser-Lys-Tyr-Leu-Asp-Aib-Arg-Arg-Ala-Gln-Asp-Phe-Val-Gln-Trp-Leu-Met-Asn-Thr-Gly-Gly-Pro-Ser-Ser-Gly-Ala-Pro-Pro-Pro-Ser-NH2 (H[dS]QGTFTSDK([PEG2′-PEG2′-Stearoyl])SKYLD[Aib]RRAQDFVQWLMNTGGPSSGAPPPS-NH2) [Compound 32]” was run?
The value was 97.14%.

How did the “Relative expression of α-SMA (α-SMA/β-actin, %)” value turn out when “His-(D-Ser)-Gln-Gly-Thr-Phe-Thr-Ser-Asp-Tyr-Ser-Lys-Tyr-Leu-Asp-Glu-Lys-Ala-Ala-Lys(PEG2-PEG2-γGlu-CO(CH2)14CO2H)-Glu-Phe-Ile-Glu-Trp-Leu-Leu-Asn-Gly-Gly-Pro-Ser-Ser-Gly-Ala-Pro-Pro-Pro-Ser-NH2 (H[dS]QGTFTSDYSKYLDEKAAK([PEG2′-PEG2′-γGlu-C16 diacid])EFIEWLLNGGPSSGAPPPS-NH2) [Compound 27]” was run?
Its value is 92.34%.

For “His-(D-Ser)-Gln-Gly-Thr-Phe-Thr-Ser-Asp-Tyr-Ser-Lys-Tyr-Leu-Asp-Aib-Lys(PEG2-PEG2-CO(CH2)16CO2H)-Arg-Ala-Gln-Asp-Phe-Val-Gln-Trp-Leu-Met-Asn-Thr-Gly-Gly-Pro-Ser-Ser-Gly-Ala-Pro-Pro-Pro-Ser-NH2 (H[dS]QGTFTSDYSKYLD[Aib]K([PEG2′-PEG2′-C18 diacid])RAQDFVQWLMNTGGPSSGAPPPS-NH2) [Compound 10]”, which “Relative expression of α-SMA (α-SMA/β-actin, %)” value is on record?
The value was 71.49%.

With “His-(D-Ser)-Gln-Gly-Thr-Phe-Thr-Ser-Asp-Lys(PEG2-PEG2-CO(CH2)16CO2H)-Soer-Lys-Tyr-Leu-Asp-Aib-Arg-Arg-Ala-Gln-Asp-Phe-Val-Gln-Trp-Leu-Met-Asn-Thr-Gly-Gly-Pro-Ser-Ser-Gly-Ala-Pro-Pro-Pro-Ser-NH2 (H[dS]QGTFTSDK([PEG2′-PEG2′-C18 diacid])SKYLD[Aib]RRAQDFVQWLMNTGGPSSGAPPPS-NH2) [Compound 30]” as the substance, how does the “Relative expression of α-SMA (α-SMA/β-actin, %)” value read?
Its value is 85.53%.

With “His-(D-Ser)-Gln-Gly-Thr-Phe-Thr-Ser-Asp-Tyr-Ser-Lys-Tyr-Leu-Asp-Ser-Lys(PEG2-PEG2-γGlu-CO(CH2)16CO2H)-Ala-Ala-His-Asp-Phe-Val-Glu-Trp-Leu-Leu-Arg-Ala-NH2 (H[dS]QGTFTSDYSKYLDSK([PEG2′-PEG2′-γGlu-C18 diacid])AAHDFVEWLLRA-NH2) [Compound 17]” as the substance, how does the “Relative expression of α-SMA (α-SMA/β-actin, %)” value read?
The value was 75.38%.

How did the “Relative expression of α-SMA (α-SMA/β-actin, %)” value turn out when “His-(D-Ser)-Gln-Gly-Thr-Phe-Thr-Ser-Asp-Tyr-Ser-Lys-Tyr-Leu-Asp-Glu-Lys-Ala-Ala-Lys(PEG2-PEG2-γGlu-CO(CH2)14CH3)-Glu-Phe-Ile-Glu-Trp-Leu-Leu-Arg-Ala-NH2 (H[dS]QGTFTSDYSKYLDEKAAK([PEG2′-PEG2′-γGlu-Palmitoyl])EFIEWLLRA-NH2) [Compound 23]” was run?
The value was 95.91%.

Which “Relative expression of α-SMA (α-SMA/β-actin, %)” value does the source give for “His-(D-Ser)-Gln-Gly-Thr-Phe-Thr-Ser-Asp-Tyr-Ser-Lys(PEG2-PEG2-CO(CH2)14CH3)-Lys-Leu-Asp-Aib-Arg-Arg-Ala-Gln-Asp-Phe-Val-Gln-Trp-Leu-Met-Asn-Thr-Gly-Gly-Pro-Ser-Ser-Gly-Ala-Pro-Pro-Pro-Ser-NH2 (H[dS]QGTFTSDYSK([PEG2′-PEG2′-Palmitoyl])KLD[Aib]RRAQDFVQWLMNTGGPSSGAPPPS-NH2) [Compound 9]” here?
Its value is 75.86%.

Which “Relative expression of α-SMA (α-SMA/β-actin, %)” value does the source give for “His-(D-Ser)-Gln-Gly-Thr-Phe-Thr-Ser-Asp-Lys(PEG2-PEG2-γGlu-CO(CH2)14CH3)-Ser-Lys-Tyr-Leu-Asp-Aib-Arg-Arg-Ala-Gln-Asp-Phe-Val-Gln-Trp-Leu-Met-Asn-Thr-Gly-Gly-Pro-Ser-Ser-Gly-Ala-Pro-Pro-Pro-Ser-NH2 (H[dS]QGTFTSDK([PEG2′-PEG2′-γGlu-Palmitoyl])SKYLD[Aib]RRAQDFVQWLMNTGGPSSGAPPPS-NH2) [Compound 4]” here?
Its value is 88.50%.

How did the “Relative expression of α-SMA (α-SMA/β-actin, %)” value turn out when “His-(D-Ser)-Gln-Gly-Thr-Phe-Thr-Ser-Asp-Tyr-Ser-Lys-Tyr-Leu-Asp-Lys(PEG2-PEG2-γGlu-CO(CH2)16CH3)-Arg-Arg-Ala-Gln-Asp-Phe-Val-Gln-Trp-Leu-Met-Asn-Thr-Gly-Gly-Pro-Ser-Ser-Gly-Ala-Pro-Pro-Pro-Ser-NH2 (H[dS]QGTFTSDYSKYLDK([PEG2′-PEG2′-γGlu-Stearoyl])RRAQDFVQWLMNTGGPSSGAPPPS-NH2) [Compound 36]” was run?
The value was 62.49%.

For “His-(D-Ser)-Gln-Gly-Thr-Phe-Thr-Ser-Asp-Tyr-Ser-Lys-Tyr-Leu-Asp-Ser-Lys(PEG2-PEG2-γGlu-CO(CH2)16CO2H)-Ala-Ala-His-Asp-Phe-Val-Glu-Trp-Leu-Leu-Asn-Gly-Gly-Pro-Ser-Ser-Gly-Ala-Pro-Pro-Pro-Ser-NH2 (H[dS]QGTFTSDYSKYLDSK([PEG2′-PEG2′-γGlu-C18 diacid])AAHDFVEWLLNGGPSSGAPPPS-NH2) [Compound 21]”, which “Relative expression of α-SMA (α-SMA/β-actin, %)” value is on record?
Its value is 97.66%.

Which “Relative expression of α-SMA (α-SMA/β-actin, %)” value does the source give for “His-Aib-Gln-Gly-Thr-Phe-Thr-Ser-Asp-Lys(PEG2-PEG2-γGlu-CO(CH2)14CO2H)-Ser-Lys-Tyr-Leu-Asp-Aib-Arg-Arg-Ala-Gln-Asp-Phe-Val-Gln-Trp-Leu-Leu-Asp-Gly-Gly-Pro-Ser-Ser-Gly-Ala-Pro-Pro-Pro-Ser-NH2 (H[Aib]QGTFTSDK([PEG2′-PEG2′-γGlu-C16 diacid])SKYLD[Aib]RRAQDFVQWLLDGGPSSGAPPPS-NH2) [Compound 11]” here?
Its value is 96.78%.

With “His-(D-Ser)-Gln-Gly-Thr-Phe-Thr-Ser-Asp-Lys(PEG2-PEG2-CO(CH2)14CH3)-Ser-Lys-Tyr-Leu-Asp-Aib-Arg-Arg-Ala-Gln-Asp-Phe-Val-Gln-Trp-Leu-Met-Asn-Thr-Gly-Gly-Pro-Ser-Ser-Gly-Ala-Pro-Pro-Pro-Ser-NH2 (H[dS]QGTFTSDK([PEG2′-PEG2′-Palmitoyl])SKYLD[Aib]RRAQDFVQWLMNTGGPSSGAPPPS-NH2) [Compound 31]” as the substance, how does the “Relative expression of α-SMA (α-SMA/β-actin, %)” value read?
Its value is 86.89%.

For “His-(D-Ser)-Gln-Gly-Thr-Phe-Thr-Ser-Asp-Tyr-Ser-Lys-Tyr-Leu-Asp-Glu-Lys-Ala-Ala-Lys(PEG2-PEG2-γGlu-CO(CH2)16CO2H)-Glu-Phe-Ile-Glu-Trp-Leu-Leu-Arg-Ala-NH2 (H[dS]QGTFTSDYSKYLDEKAAK([PEG2′-PEG2′-γGlu-C18 diacid])EFIEWLLRA-NH2) [Compound 18]”, which “Relative expression of α-SMA (α-SMA/β-actin, %)” value is on record?
The value was 75.60%.

With “His-(D-Ser)-Gln-Gly-Thr-Phe-Thr-Ser-Asp-Tyr-Ser-Lys(PEG2-PEG2-CO(CH2)16CH3)-Lys-Leu-Asp-Aib-Arg-Arg-Ala-Gln-Asp-Phe-Val-Gln-Trp-Leu-Met-Asn-Thr-Gly-Gly-Pro-Ser-Ser-Gly-Ala-Pro-Pro-Pro-Ser-NH2 (H[dS]QGTFTSDYSK([PEG2′-PEG2′-Stearoyl])KLD[Aib]RRAQDFVQWLMNTGGPSSGAPPPS-NH2) [Compound 3]” as the substance, how does the “Relative expression of α-SMA (α-SMA/β-actin, %)” value read?
The value was 82.25%.

“His-(D-Ser)-Gln-Gly-Thr-Phe-Thr-Ser-Asp-Tyr-Ser-Lys-Tyr-Leu-Asp-Lys(PEG2-PEG2-γGlu-CO(CH2)16CO2H)-Arg-Arg-Ala-Gln-Asp-Phe-Val-Gln-Trp-Leu-Met-Asn-Thr-Gly-Gly-Pro-Ser-Ser-Gly-Ala-Pro-Pro-Pro-Ser-NH2 (H[dS]QGTFTSDYSKYLDK([PEG2′-PEG2′-γGlu-C18 diacid])RRAQDFVQWLMNTGGPSSGAPPPS-NH2) [Compound 34]” was tested. Which “Relative expression of α-SMA (α-SMA/β-actin, %)” value did it give?
Its value is 88.18%.
